According to patent US20040123342A1, “Monocotyledonous plant transformation” (Sugar Research & Development Corporation, priority 2000, published 2004):

Columns and labels:
[1] = system: TS leaf whorl explants obtained from the Q187 and Q124 sugarcane cultivars; experiment: Cross-testing of NAA and BA concentrations for shoot regeneration from thin section leaf whorl explants; format: cell-based; details: for optimal concentration in culture medium for regeneration: Q187 and Q124 TS leaf whorl explants
Procedure: Murashige & Skoog (MS) nutrient formulation supplemented with 30 g/L sucrose and 7.5 g/L Difco agar was used as the basal culture medium. Basal medium was, for certain phases of culture as will be described below, enriched with the cytokinin N^6-benzylaminopurine (BA) and the auxin a-napthaleneacetic acid NAA) together with anti-oxidants such as citric acid (CA), ascorbic acid (AA), or dithiothreitol (DTT). The pH of the medium was adjusted to 5.7 before autoclaving at 11kPa for 20 minutes at 120° C. TS explants were cultured in various orientations either in tissue culture dishes (90×14 mm) with 40 ml agar- solidified medium or in a 100 mL baby food jar containing 40 ml liquid medium, or on membrane rafts with flotation kept in a polypropylene container with 40 ml liquid medium. Liquid cultures were agitated continuously on a gyratory shaker at 120 rpm. All cultures were incubated at […] under 16 hr photoperiod provided by cool, white fluorescent tubes, Subculturing was carried out at least once a week, or more frequently if medium or TS turned brown due to phenolic exudation. Cross-testing of NAA and BA concentrations was also performed using TS leaf whorl explants obtained from the […] and […] sugarcane cultivars. […] However, higher concentrations of NAA (10-40 μM) promoted a slightly […] percentage of explants producing shoots. There was no clear trend in terms of the number of shoots produced with regard to either NAA or BA concentration, Generally, 4 μM BA was preferred at any given concentration of NAA, while NAA was optimal when present in culture medium at a concentration of 10 μM.

[2] = system: leaf TS explants (sugarcane cultivar Q165); experiment: Effect of selection agent on shoot regeneration from bombarded leaf TS explants; format: cell-based; details: 100 mg/L in medium, transfer at 3 days after bombardment
Procedure: Sugarcane leaf sheath tissue taken from just above the meristem was taken from cultivar Q165 plants. Transverse thin section explants (2-3 mm) of leaf whorl were obtained from the harvested tissue. These are generally referred to as leaf thin sections.
A number of preliminary experiments were performed to detennije parametens which provided optimal regeneration from transformed tissue while providing optimal selection of transformants.
Similar results were obtained when bombarded TS explants were transferred to medium containing even low levels of selection agent.

c1ccc(CNc2ncnc3nc[nH]c23)cc1 [BA, N^6-benzylaminopurine]
optimal concentration in culture medium for regeneration [1]: 4 µM
regeneration efficiency, 4 μM vs 8 μM BA ([1]; cultivar Q124, any of the regeneration criteria examined): no clear preference
regeneration efficiency, 4 μM vs 8 μM BA ([1]; cultivar Q187, TS leaf whorl explants): 4 μM BA was clearly more efficient than 8 μM BA

O=C(O)Cc1cccc2ccccc12 [NAA, a-napthaleneacetic acid]
optimal concentration in culture medium for regeneration [1]: 10 µM
percentage of explants producing shoots ([1]; higher concentrations of NAA (10-40 μM)): slightly hither percentage of explants producing shoots

paromomycin sulphate
shoot regeneration [2]: no shoot regeneration
